# From US12215140B2, “Method of stabilizing protein contained in specimen and solution for stabilizing protein contained in specimen” (EIKEN KAGAKU KABUSHIKI KAISHA, priority 2018, dated 2025)
# Test system: hemoglobin-haptoglobin complex
# Test: Stability of hemoglobin (as hemoglobin-haptoglobin complex) in samples preserved at 37° C. in preservation solution containing 1 unit/L haptoglobin, Hb measured by latex agglutination method (Examples 1 to 7)
# Design: species or system human
# In short: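 Latex agglutination (anti-human hemoglobin rabbit polyclonal latex) measured Hb in samples stored at 37 °C up to 21 days; values expressed as % recovery versus day 0. Preservation solution: HEPES 40 mmol/L pH 6.8, BSA 0.1%, NaN3 0.1%, haptoglobin 1 unit/L, phenylboronic acid 0–100 mmol/L, optional sugars; ~300 µg/L Hb, 0.5% feces or none.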
# [1] = Feces 1, phenylboronic acid 0.5 mmol/L, 37° C., 0 days
# [2] = Feces 1, phenylboronic acid 0.5 mmol/L, 37° C., 7 days
# [3] = Feces 1, phenylboronic acid 0.5 mmol/L, 37° C., 14 days
# [4] = Feces 1, phenylboronic acid 0.5 mmol/L, 37° C., 21 days
# [5] = Feces 1, phenylboronic acid 1 mmol/L, 37° C., 0 days
# [6] = Feces 1, phenylboronic acid 1 mmol/L, 37° C., 14 days
# [7] = Feces 1, phenylboronic acid 1 mmol/L, 37° C., 21 days
# [8] = Feces 1, phenylboronic acid 15 mmol/L, 37° C., 0 days
# [9] = Feces 1, phenylboronic acid 15 mmol/L, 37° C., 7 days
# [10] = Feces 1, phenylboronic acid 15 mmol/L, 37° C., 14 days
# [11] = Feces 1, phenylboronic acid 15 mmol/L, 37° C., 21 days
# [12] = Feces 1, phenylboronic acid 50 mmol/L, 37° C., 0 days
# [13] = Feces 1, phenylboronic acid 50 mmol/L, 37° C., 7 days
# [14] = Feces 1, phenylboronic acid 50 mmol/L, 37° C., 14 days
# [15] = Feces 1, phenylboronic acid 50 mmol/L, 37° C., 21 days
# [16] = Feces 1, phenylboronic acid 100 mmol/L, 37° C., 0 days
# [17] = Feces 1, phenylboronic acid 100 mmol/L, 37° C., 7 days
# [18] = Feces 1, phenylboronic acid 100 mmol/L, 37° C., 14 days
# [19] = Feces 1, phenylboronic acid 100 mmol/L, 37° C., 21 days
# [20] = Feces 2, phenylboronic acid 0.5 mmol/L, 37° C., 0 days
# [21] = Feces 2, phenylboronic acid 0.5 mmol/L, 37° C., 7 days
# [22] = Feces 2, phenylboronic acid 0.5 mmol/L, 37° C., 14 days
# [23] = Feces 2, phenylboronic acid 0.5 mmol/L, 37° C., 21 days
# [24] = Feces 2, phenylboronic acid 1 mmol/L, 37° C., 7 days
# [25] = Feces 2, phenylboronic acid 1 mmol/L, 37° C., 14 days
# [26] = Feces 2, phenylboronic acid 1 mmol/L, 37° C., 21 days
# [27] = Feces 2, phenylboronic acid 15 mmol/L, no sugar, 0 days at 37° C.
# [28] = Feces 2, phenylboronic acid 15 mmol/L, no sugar, 7 days at 37° C.
# [29] = Feces 2, phenylboronic acid 15 mmol/L, no sugar, 14 days at 37° C.
# [30] = Feces 2, phenylboronic acid 15 mmol/L, no sugar, 21 days at 37° C.
# [31] = Feces 2, phenylboronic acid 15 mmol/L, 37° C., 0 days
# [32] = Feces 2, phenylboronic acid 15 mmol/L, 37° C., 7 days
# [33] = Feces 2, phenylboronic acid 15 mmol/L, 37° C., 14 days
# [34] = Feces 2, phenylboronic acid 15 mmol/L, 37° C., 21 days
# [35] = Feces 2, phenylboronic acid 50 mmol/L, 37° C., 0 days
# [36] = Feces 2, phenylboronic acid 50 mmol/L, 37° C., 7 days
# [37] = Feces 2, phenylboronic acid 50 mmol/L, 37° C., 21 days
# [38] = Feces 2, phenylboronic acid 100 mmol/L, 37° C., 0 days
# [39] = Feces 2, phenylboronic acid 100 mmol/L, 37° C., 7 days
# [40] = Feces 2, phenylboronic acid 100 mmol/L, 37° C., 14 days
# [41] = Feces 2, phenylboronic acid 100 mmol/L, 37° C., 21 days
smiles,measurement,setting,value
OB(O)c1ccccc1 [phenylboronic acid],recovery ratio of hemoglobin in the samples,"Feces 1, Feces 2, Feces 3, phenylboronic acid at 0.5 mmol/L or more",improved
same,Hb concentration,[1],279 µg/L
same,Recovery ratio with respect to Hb concentration after 0 days,[1],100%
same,Hb concentration,[2],181 µg/L
same,Recovery ratio with respect to Hb concentration after 0 days,[2],65%
same,Hb concentration,[3],147 µg/L
same,Recovery ratio with respect to Hb concentration after 0 days,[3],53%
same,Hb concentration,[4],129 µg/L
same,Recovery ratio with respect to Hb concentration after 0 days,[4],46%
same,Hb concentration,[5],275 µg/L
same,Recovery ratio with respect to Hb concentration after 0 days,[5],100%
same,Recovery ratio with respect to Hb concentration after 0 days,"Feces 1, phenylboronic acid 1 mmol/L, 37° C., 7 days",66%
same,Hb concentration,[6],148 µg/L
same,Recovery ratio with respect to Hb concentration after 0 days,[6],54%
same,Hb concentration,[7],125 µg/L
same,Recovery ratio with respect to Hb concentration after 0 days,[7],45%
same,Hb concentration,[8],302 µg/L
same,Recovery ratio with respect to Hb concentration after 0 days,[8],100%
same,Hb concentration,[9],243 µg/L
same,Recovery ratio with respect to Hb concentration after 0 days,[9],80%
same,Hb concentration,[10],239 µg/L
same,Recovery ratio with respect to Hb concentration after 0 days,[10],79%
same,Hb concentration,[11],224 µg/L
same,Recovery ratio with respect to Hb concentration after 0 days,[11],74%
same,Hb concentration,[12],290 µg/L
same,Recovery ratio with respect to Hb concentration after 0 days,[12],100%
same,Hb concentration,[13],230 µg/L
same,Recovery ratio with respect to Hb concentration after 0 days,[13],79%
same,Hb concentration,[14],204 µg/L
same,Recovery ratio with respect to Hb concentration after 0 days,[14],70%
same,Hb concentration,[15],185 µg/L
same,Recovery ratio with respect to Hb concentration after 0 days,[15],64%
same,Hb concentration,[16],271 µg/L
same,Recovery ratio with respect to Hb concentration after 0 days,[16],100%
same,Hb concentration,[17],186 µg/L
same,Recovery ratio with respect to Hb concentration after 0 days,[17],69%
same,Hb concentration,[18],137 µg/L
same,Recovery ratio with respect to Hb concentration after 0 days,[18],51%
same,Hb concentration,[19],97 µg/L
same,Recovery ratio with respect to Hb concentration after 0 days,[19],36%
same,Hb concentration,[20],271 µg/L
same,Recovery ratio with respect to Hb concentration after 0 days,[20],100%
same,Hb concentration,[21],147 µg/L
same,Recovery ratio with respect to Hb concentration after 0 days,[21],54%
same,Hb concentration,[22],113 µg/L
same,Recovery ratio with respect to Hb concentration after 0 days,[22],42%
same,Hb concentration,[23],91 µg/L
same,Recovery ratio with respect to Hb concentration after 0 days,[23],34%
same,Recovery ratio with respect to Hb concentration after 0 days,"Feces 2, phenylboronic acid 1 mmol/L, 37° C., 0 days",100%
same,Hb concentration,[24],166 µg/L
same,Recovery ratio with respect to Hb concentration after 0 days,[24],58%
same,Hb concentration,[25],136 µg/L
same,Recovery ratio with respect to Hb concentration after 0 days,[25],48%
same,Hb concentration,[26],116 µg/L
same,Recovery ratio with respect to Hb concentration after 0 days,[26],41%
same,Hb concentration,[27],283 µg/L
same,Recovery ratio with respect to Hb concentration after 0 days,[27],100%
same,Hb concentration,[28],249 µg/L
same,Recovery ratio with respect to Hb concentration after 0 days,[28],88%
same,Hb concentration,[29],214 µg/L
same,Recovery ratio with respect to Hb concentration after 0 days,[29],76%
same,Hb concentration,[30],191 µg/L
same,Recovery ratio with respect to Hb concentration after 0 days,[30],67%
same,Hb concentration,[31],283 µg/L
same,Recovery ratio with respect to Hb concentration after 0 days,[31],100%
same,Hb concentration,[32],249 µg/L
same,Recovery ratio with respect to Hb concentration after 0 days,[32],88%
same,Hb concentration,[33],214 µg/L
same,Recovery ratio with respect to Hb concentration after 0 days,[33],76%
same,Hb concentration,[34],191 µg/L
same,Recovery ratio with respect to Hb concentration after 0 days,[34],67%
same,Hb concentration,[35],269 µg/L
same,Recovery ratio with respect to Hb concentration after 0 days,[35],100%
same,Hb concentration,[36],214 µg/L
same,Recovery ratio with respect to Hb concentration after 0 days,[36],80%
same,Recovery ratio with respect to Hb concentration after 0 days,"Feces 2, phenylboronic acid 50 mmol/L, 37° C., 14 days",65%
same,Hb concentration,[37],149 µg/L
same,Recovery ratio with respect to Hb concentration after 0 days,[37],55%
same,Hb concentration,[38],250 µg/L
same,Recovery ratio with respect to Hb concentration after 0 days,[38],100%
same,Hb concentration,[39],139 µg/L
same,Recovery ratio with respect to Hb concentration after 0 days,[39],56%
same,Hb concentration,[40],80 µg/L
same,Recovery ratio with respect to Hb concentration after 0 days,[40],32%
same,Hb concentration,[41],36 µg/L
same,Recovery ratio with respect to Hb concentration after 0 days,[41],14%
same,Hb concentration,"Feces 3, phenylboronic acid 0.5 mmol/L, 37° C., 0 days",283 µg/L
